Data taken from the supplement of paper PMC10307832.

Key:
Experiment in all cases: relative viability (nuclei count vs DMSO), 5 days (fraction); higher = more cells survive
Erlotinib + Navitoclax = compound: C#Cc1cccc(Nc2ncnc3cc(OCCOC)c(OCCOC)cc23)c1 [Erlotinib] + CC1(C)CCC(c2ccc(Cl)cc2)=C(CN2CCN(c3ccc(C(=O)NS(=O)(=O)c4ccc(N[C@H](CCN5CCOCC5)CSc5ccccc5)c(S(=O)(=O)C(F)(F)F)c4)cc3)CC2)C1 [Navitoclax] (partner 0.5 µM)
Procedure, shortened: (§1)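 Five library-drug doses in √10 steps were combined with a fixed anchor-drug dose, or a single drug was given alone, by pin tool to lung cancer cell lines in 1536-well plates the day after seeding. Nuclei were stained and counted after 5 days. Relative viability is the nuclei count in treated wells over that in vehicle wells, taken as the median of duplicate plates.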

Erlotinib + Lapatinib = compound: C#Cc1cccc(Nc2ncnc3cc(OCCOC)c(OCCOC)cc23)c1 [Erlotinib] + CS(=O)(=O)CCNCc1ccc(-c2ccc3ncnc(Nc4ccc(OCc5cccc(F)c5)c(Cl)c4)c3c2)o1 [Lapatinib] (partner 2 µM)
Procedure, shortened: as §1

Erlotinib + Pictilisib = compound: C#Cc1cccc(Nc2ncnc3cc(OCCOC)c(OCCOC)cc23)c1 [Erlotinib] + CS(=O)(=O)N1CCN(Cc2cc3nc(-c4cccc5[nH]ncc45)nc(N4CCOCC4)c3s2)CC1 [Pictilisib] (partner 1 µM)
Procedure, shortened: as §1

AT9283 + OSI-027 = compound: O=C(Nc1c[nH]nc1-c1nc2ccc(CN3CCOCC3)cc2[nH]1)NC1CC1 [AT9283] + COc1cccc2cc(-c3nc([C@H]4CC[C@H](C(=O)O)CC4)n4ncnc(N)c34)[nH]c12 [OSI-027] (partner 0.5 µM)
Procedure, shortened: as §1

AT9283 + Vorinostat = compound: O=C(Nc1c[nH]nc1-c1nc2ccc(CN3CCOCC3)cc2[nH]1)NC1CC1 [AT9283] + O=C(CCCCCCC(=O)Nc1ccccc1)NO [Vorinostat] (partner 1 µM)
Procedure, shortened: as §1

Row | Cell Line | relative viability (Erlotinib + Navitoclax; first compound 0.02 µM) | relative viability (Erlotinib + Navitoclax; first compound 0.2 µM) | relative viability (Erlotinib + Navitoclax; first compound 0.6325 µM) | relative viability (Erlotinib + Navitoclax; first compound 2 µM) | relative viability (Erlotinib + Lapatinib; first compound 0.02 µM) | relative viability (Erlotinib + Lapatinib; first compound 0.2 µM) | relative viability (Erlotinib + Lapatinib; first compound 0.6325 µM) | relative viability (Erlotinib + Lapatinib; first compound 2 µM) | relative viability (Erlotinib + Pictilisib; first compound 0.02 µM) | relative viability (Erlotinib + Pictilisib; first compound 0.2 µM) | relative viability (Erlotinib + Pictilisib; first compound 0.6325 µM) | relative viability (Erlotinib + Pictilisib; first compound 2 µM) | relative viability (AT9283 + OSI-027; first compound 0.003 µM) | relative viability (AT9283 + OSI-027; first compound 0.03 µM) | relative viability (AT9283 + OSI-027; first compound 0.09487 µM) | relative viability (AT9283 + OSI-027; first compound 0.3 µM) | relative viability (AT9283 + Vorinostat; first compound 0.003 µM) | relative viability (AT9283 + Vorinostat; first compound 0.03 µM) | relative viability (AT9283 + Vorinostat; first compound 0.09487 µM) | relative viability (AT9283 + Vorinostat; first compound 0.3 µM)
1 | HCC-78 | 0.731 | 0.503 | 0.744 | 0.621 | 0.737 | 0.742 | 0.696 | 0.701 | 0.195 | 0.207 | 0.218 | 0.21 | 0.519 | 0.304 | 0.271 | 0.276 | 0.384 | 0.385 | 0.258 | 0.229
2 | RERF-LC-KJ | 0.861 | 0.663 | 0.583 | 0.771 | 0.857 | 0.864 | 0.936 | 0.734 | 0.579 | 0.412 | 0.376 | 0.307 | 0.609 | 0.544 | 0.308 | 0.279 | 0.636 | 0.473 | 0.346 | 0.264
3 | NCI-H1915 | 0.865 | 0.807 | 0.841 | 0.745 | 1.01 | 0.987 | – | 0.992 | – | – | 1.07 | 0.948 | 0.619 | 0.619 | 0.239 | 0.196 | 0.489 | 0.466 | 0.175 | 0.152
4 | NCI-H1666 | 0.999 | 0.817 | 0.407 | 0.347 | 0.714 | 0.552 | 0.698 | 0.699 | 0.466 | 0.329 | 0.317 | 0.267 | 0.782 | 0.811 | 0.636 | 0.483 | 1.18 | 0.769 | 0.527 | 0.606
5 | NCI-H1650 | 1.15 | 1.23 | 1.14 | 0.924 | 0.705 | 0.728 | 0.899 | 0.828 | 0.483 | – | 0.578 | 0.47 | 0.838 | 0.575 | 0.357 | 0.227 | 0.608 | 0.487 | 0.375 | 0.194
6 | NCI-H322M | 1.12 | 1.09 | 0.77 | 0.468 | 0.551 | 0.604 | 0.555 | 0.541 | 0.456 | 0.499 | 0.347 | 0.365 | 0.396 | 0.306 | 0.472 | 0.464 | 0.87 | 0.579 | 0.497 | 0.407
7 | LC-2-ad | 0.488 | 0.472 | 0.397 | 0.229 | 1.03 | 0.896 | 1.05 | 0.861 | 0.557 | 0.427 | 0.429 | 0.303 | 0.766 | 0.476 | 0.249 | 0.229 | 0.696 | 0.251 | 0.199 | 0.157
8 | HCC-827 | 0.465 | 0.167 | 0.162 | 0.172 | 0.239 | 0.163 | 0.201 | 0.171 | 0.374 | 0.241 | 0.273 | 0.329 | 0.694 | 0.647 | 0.597 | 0.181 | 0.612 | 0.36 | 0.363 | 0.248
9 | NCI-H2023 | 1.01 | 1.02 | 0.916 | 0.837 | 0.737 | 0.651 | 0.965 | – | 0.3 | – | 0.218 | 0.226 | 0.389 | 0.456 | 0.148 | 0.104 | 0.527 | 0.344 | 0.149 | 0.144
